Ki data for five compounds are collected here from paper PMC10343272, “Synthesis and Evaluation of ^99mTc-Labeled PSMA-Targeted Tracers Based on the Lys-Urea-Aad Pharmacophore for Detecting Prostate Cancer with Single Photon Emission Computed Tomography” (Molecules, 2023).

Where two headings read alike, the source gives them in different places.

In assay [1] the target is T1, PSMA (Homo sapiens, UniProt Q04609).
T1 construct: host or cells: LNCaP cells
The assay is described as follows: In vitro competition binding assay ([^18F]DCFPyL displacement on LNCaP cells). The conditions noted are these: inhibition of [^18F]DCFPyL binding to PSMA-expressing LNCaP cells, n = 3. The protocol: All tested PSMA-targeted ligands inhibited the binding of [^18F]DCFPyL to PSMA-expressing LNCaP cells in a concentration-dependent manner (Figure 2, n = 3).
The in vitro competition binding assays were performed following our previously published procedures. Briefly, LNCaP cells in RMPI medium with FBS, penicillin, and streptomycin were plated onto 24-well poly-D-lysine coated plates at 200,000 cells/well 48 h prior to binding assay. The growth medium was removed and the cells were rinsed with HEPES-buffered saline (50 mM HEPES, pH 7.5, 0.9% NaCl) two times before 400 µL of HEPES buffer were added to each well. Varying concentrations of PSMA-targeted ligands (50 µL) were added to each well in triplicate before adding 0.1 nmol/50 µL of [^18F]DCFPyL. After the additions, plates were incubated and swirled at 37 °C. After 1 h incubation, the solutions were removed, and cells were washed with HEPES-buffered saline twice. Finally, 400 µL of 0.25% trypsin solution were added to each well. After 10 min incubation, cells were collected for counting using a PerkinElmer (Waltham, MA, USA) Wizard2 2480 automatic gamma counter. The Ki values were analyzed with GraphPad (San Diego, CA, USA) Prism 7 software using nonlinear regression fit.

The target of assay [2] is T1, PSMA. The conditions noted are these: previous observation; cited from earlier work.

T1 sequence (Q04609 whole entry): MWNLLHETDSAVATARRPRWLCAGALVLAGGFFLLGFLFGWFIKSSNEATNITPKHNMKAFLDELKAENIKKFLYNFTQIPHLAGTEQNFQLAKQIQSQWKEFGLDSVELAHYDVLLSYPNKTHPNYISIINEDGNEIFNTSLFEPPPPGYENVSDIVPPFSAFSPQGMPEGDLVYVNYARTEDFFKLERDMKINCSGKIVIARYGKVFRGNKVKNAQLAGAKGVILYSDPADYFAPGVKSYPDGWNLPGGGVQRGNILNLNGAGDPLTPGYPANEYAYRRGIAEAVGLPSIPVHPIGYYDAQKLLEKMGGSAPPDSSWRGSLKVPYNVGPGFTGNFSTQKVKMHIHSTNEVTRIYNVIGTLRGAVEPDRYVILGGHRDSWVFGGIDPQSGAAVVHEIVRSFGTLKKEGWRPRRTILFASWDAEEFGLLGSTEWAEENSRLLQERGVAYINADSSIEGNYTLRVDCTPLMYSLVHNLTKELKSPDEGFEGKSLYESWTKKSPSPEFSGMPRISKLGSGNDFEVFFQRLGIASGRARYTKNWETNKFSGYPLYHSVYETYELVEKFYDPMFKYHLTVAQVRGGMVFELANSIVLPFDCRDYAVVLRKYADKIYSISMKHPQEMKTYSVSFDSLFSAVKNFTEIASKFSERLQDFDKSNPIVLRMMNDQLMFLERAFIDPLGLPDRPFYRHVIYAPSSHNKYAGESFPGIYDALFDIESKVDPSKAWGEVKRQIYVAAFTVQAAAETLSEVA

As usually defined, the Ki is a measure of affinity in units of concentration, obtained from inhibition or displacement. In the case of `NNc1ccc(C(=O)NC[C@H]2CC[C@H](C(=O)N[C@@H](Cc3c4ccccc4cc4ccccc34)C(=O)NCCCC[C@H](NC(=O)N[C@@H](CCCC(=O)O)C(=O)O)C(=O)O)CC2)cn1` [HTK03180], in assay [1], the affinity, expressed as Ki, was 11.6 ± 1.5 nM. The compound `NNc1ccc(C(=O)N[C@@H](Cc2ccc3ccccc3c2)C(=O)NCCCC[C@H](NC(=O)N[C@@H](CCC(=O)O)C(=O)O)C(=O)O)cn1` [HYNIC-iPSMA, reference compound] returned a Ki in assay [1] of 3.11 nM. In the case of `O=C(O)CCC[C@H](NC(=O)N[C@@H](CCCCNC(=O)[C@H](Cc1c2ccccc2cc2ccccc12)NC(=O)[C@H]1CC[C@H](CNC(=O)CN2CCN(CC(=O)O)CCN(CC(=O)O)CCN(CC(=O)O)CC2)CC1)C(=O)O)C(=O)O` [HTK03149], the Ki in assay [2] is 6.99 nM. In assay [1], `NNc1ccc(C(=O)N[C@@H](Cc2ccc3ccccc3c2)C(=O)NCCCC[C@H](NC(=O)N[C@@H](CCCC(=O)O)C(=O)O)C(=O)O)cn1` [KL01127] came in with a Ki of 8.96 ± 0.58 nM. On the same count and under the same terms, with `NNc1ccc(C(=O)NC[C@H]2CC[C@H](C(=O)N[C@@H](Cc3c4ccccc4cc4ccccc34)C(=O)NCCCC[C@H](NC(=O)N[C@@H](CCC(=O)O)C(=O)O)C(=O)O)CC2)cn1` [KL01099] the figure was 10.7 nM.
